Data: ChEMBL document CHEMBL3745641, “Discovery and Structure-Guided Optimization of Diarylmethanesulfonamide Disrupters of Glucokinase-Glucokinase Regulatory Protein (GK-GKRP) Binding: Strategic Use of a N → S (nN → σ*S-X) Interaction for Conformational Constraint” (J Med Chem, 2015)

Columns and labels:
[1] = Apparent permeability from apical to basolateral side in pig LLC-PK1 cells; format: ADME, cell-based, Sus scrofa
[2] = Intrinsic clearance in rat liver microsomes after 30 mins; format: ADME; conditions: read-out: CLH
[3] = target: T1, Glucokinase regulatory protein (Mus musculus, UniProt Q91X44); test: Inhibition of glucokinase-GKRP binding interaction in mouse hepatocytes assessed as induction of glucokinase translocation; format: cell-based, Hepatocyte
T1 sequence (Q91X44 whole entry): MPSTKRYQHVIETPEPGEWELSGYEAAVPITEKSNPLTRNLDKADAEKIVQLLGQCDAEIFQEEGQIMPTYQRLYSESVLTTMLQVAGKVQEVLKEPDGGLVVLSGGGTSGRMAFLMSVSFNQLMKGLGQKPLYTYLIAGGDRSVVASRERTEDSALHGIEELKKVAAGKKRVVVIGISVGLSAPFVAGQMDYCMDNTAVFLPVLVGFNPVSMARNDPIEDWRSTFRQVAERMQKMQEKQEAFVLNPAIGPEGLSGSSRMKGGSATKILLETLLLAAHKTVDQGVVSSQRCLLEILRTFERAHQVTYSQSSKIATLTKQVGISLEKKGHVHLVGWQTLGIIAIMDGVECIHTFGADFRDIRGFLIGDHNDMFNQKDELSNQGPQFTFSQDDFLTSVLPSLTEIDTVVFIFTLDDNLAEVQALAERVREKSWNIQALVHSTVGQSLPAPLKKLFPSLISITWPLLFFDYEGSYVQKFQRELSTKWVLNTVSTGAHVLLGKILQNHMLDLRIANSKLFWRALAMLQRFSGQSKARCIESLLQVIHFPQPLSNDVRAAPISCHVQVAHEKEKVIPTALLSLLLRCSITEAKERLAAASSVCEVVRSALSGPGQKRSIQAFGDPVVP

[4] = Volume of distribution at steady state in Sprague-Dawley rat at 2 mg/kg, iv; format: ADME, organism-based; conditions: in vivo, read-out: Vdss
[5] = Tmax in Sprague-Dawley rat at 10 mg/kg, po; format: ADME, organism-based; conditions: in vivo
[6] = Oral bioavailability in Sprague-Dawley rat at 10 mg/kg; format: ADME, organism-based; conditions: in vivo
[7] = Half life in Sprague-Dawley rat at 2 mg/kg, iv; format: ADME, organism-based; conditions: in vivo
[8] = Plasma concentration in Sprague-Dawley rat at 100 mg/kg, po qd after 6 hrs; format: ADME, organism-based
[9] = Drug uptake in db/db mouse blood at 30 mg/kg, po qd after 6 hrs; format: ADME, organism-based; conditions: whole blood, read-out: Drug uptake
[10] = test system: Plasma; test: Drug uptake in po dosed Sprague-Dawley rat plasma administered qd measured after 6 hrs; format: ADME, organism-based; conditions: in vivo
[11] = Cmax in Sprague-Dawley rat at 10 mg/kg, po; format: ADME, organism-based; set-up: dose 10 mg/kg, route oral; conditions: in vivo
[12] = test system: Blood; test: Drug uptake in po dosed db/db mouse blood administered qd measured after 6 hrs; format: ADME, organism-based; conditions: in vivo
[13] = Plasma concentration in Sprague-Dawley rat at 10 mg/kg, po qd after 6 hrs; format: ADME, organism-based
[14] = Plasma concentration in Sprague-Dawley rat at 100 mg/kg, po qd at 24 hrs; format: ADME, organism-based
[15] = Plasma concentration in Sprague-Dawley rat at 10 mg/kg, po qd at 24 hrs; format: ADME, organism-based
[16] = Plasma protein binding in rat by rapid equilibrium dialysis method; format: ADME, cell-free; conditions: read-out: PPB
[17] = Drug uptake in db/db mouse blood at 10 mg/kg, po qd after 6 hrs; format: ADME, organism-based; conditions: whole blood, read-out: Drug uptake
[18] = Drug uptake in db/db mouse blood at 100 mg/kg, po qd after 6 hrs; format: ADME, organism-based; conditions: whole blood, read-out: Drug uptake
[19] = Clearance in Sprague-Dawley rat at 2 mg/kg, iv; format: ADME, organism-based; conditions: in vivo
[20] = test system: Mus musculus; test: Antidiabetic activity in db/db mouse assessed as reduction in blood glucose level at 100 mg/kg, po qd after 6 hrs relative to control; format: functional; set-up: scale not given: the % may be the effect or the level left
[21] = test system: Mus musculus; test: Antidiabetic activity in db/db mouse assessed as reduction in blood glucose level at 100 mg/kg, po qd after 3 hrs relative to control; format: functional; set-up: scale not given: the % may be the effect or the level left
[22] = Drug uptake in db/db mouse blood at 100 mg/kg, po qd after 3 hrs; format: ADME, organism-based; conditions: whole blood, read-out: Drug uptake
[23] = target: T2, Hexokinase-4 (Homo sapiens, UniProt P35557); test: Binding affinity to human glucokinase by surface plasmon resonance analysis
T2 sequence (P35557 whole entry): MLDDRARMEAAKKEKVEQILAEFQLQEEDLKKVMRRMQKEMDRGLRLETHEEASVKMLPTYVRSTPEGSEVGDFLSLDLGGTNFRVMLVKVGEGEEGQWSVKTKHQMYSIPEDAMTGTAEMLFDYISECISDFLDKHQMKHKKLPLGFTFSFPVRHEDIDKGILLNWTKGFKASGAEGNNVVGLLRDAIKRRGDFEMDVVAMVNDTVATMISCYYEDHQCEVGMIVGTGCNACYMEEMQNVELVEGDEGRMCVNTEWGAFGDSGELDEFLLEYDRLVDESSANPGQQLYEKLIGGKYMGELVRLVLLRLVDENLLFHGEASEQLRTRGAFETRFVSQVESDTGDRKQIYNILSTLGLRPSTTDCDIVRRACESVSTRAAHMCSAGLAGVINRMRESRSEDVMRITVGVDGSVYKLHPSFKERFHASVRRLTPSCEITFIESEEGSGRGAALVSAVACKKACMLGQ

[24] = target: T2, Hexokinase-4; test: Effect on human glucokinase activity after 60 mins by luciferase-based luminescence assay in absence of human GKRP

SMILES | Papp A→B [1] [×10⁻⁶ cm/s] | microsomal CLint [2] [µL/min/mg] | EC50 [3] [µM] | also measured
C[C@@](O)(c1ccnc(-c2cccc3cc([C@H](NS(=O)(=O)C4CC4)c4ccccc4Cl)sc23)c1)C(F)(F)F | < 1.8 | < 14 |  | 
CC(C)(O)c1ccnc(-c2cccc3cc([C@H](NS(=O)(=O)C4CC4)c4nc(N)ccc4Cl)sc23)c1 | 11 | 130 |  | 
CC(C)(O)c1ccnc(-c2cccc3cc([C@H](NS(=O)(=O)C4CC4)c4ccccc4Cl)sc23)c1 | 7.5 | 34 |  | 
O=S(=O)(N[C@@H](c1nc2cccnc2s1)c1ccccc1Cl)c1ccc2c(c1)OCCCO2 |  | > 399 | 3.3 | 
O=S(=O)(N[C@@H](c1cc2ccccc2s1)c1ccccc1Cl)c1ccc2c(c1)OCCCO2 |  | > 399 |  | Kd [23]: > 10 µM
O=S(=O)(N[C@@H](c1cc2ccccc2s1)c1ccccc1Cl)c1ccc2c(c1)OCO2 |  | > 399 | > 12.5 | 
O=S(=O)(NC(c1ccccc1)c1cc2ccccc2o1)c1ccc2c(c1)OCCCO2 (stereo not given) |  |  |  | Kd [23]: > 20 µM; EC50 [24]: > 100 µM
C[C@@](O)(c1cccc(-c2cccc3cc([C@H](NS(=O)(=O)C4CC4)c4ccccc4Cl)sc23)c1)C(F)(F)F |  | < 14 |  | 
C[C@](O)(c1cccc(-c2cccc3cc([C@H](NS(=O)(=O)C4CC4)c4ccccc4Cl)sc23)c1)C(F)(F)F |  | < 14 |  | 
C[C@](O)(c1ccnc(-c2cccc3cc([C@H](NS(=O)(=O)C4CC4)c4ccccc4Cl)sc23)c1)C(F)(F)F | 2.4 | < 14 |  | 
O=S(=O)(N[C@@H](c1cc2ccccc2s1)c1ccccc1Cl)c1ccc2c(c1)OCC(F)(F)CO2 |  | > 399 | > 12.5 | 
O=S(=O)(N[C@@H](c1cc2ccccc2s1)c1ccccc1Cl)c1ccc2c(c1)OCC(O)CO2 (mixture of isomers) |  | 304 | 4.3 | 

More lines, main results first:

Papp A→B [1] [×10⁻⁶ cm/s] | microsomal CLint [2] [µL/min/mg] | EC50 [3] [µM] | SMILES | also measured
 | > 399 | > 12.5 | COc1ccc(S(=O)(=O)N[C@@H](c2cc3ccccc3s2)c2ccccc2Cl)cc1 | 
19 | 28 |  | CC(C)(O)c1ccnc(-c2cccc3cc([C@H](NS(=O)(=O)C4CC4)c4nc(N)ncc4Cl)sc23)c1 | Vd [4]: 1.3 L/kg; Tmax [5]: 4.7 h; bioavailability [6]: 25%; half-life [7]: 3 h; concentration at 6 h [8]: 23000 nM; concentration at 6 h [9]: 4100 nM; Drug uptake [10]: Dose-dependent effect; Cmax [11]: 1900 nM; Drug uptake [12]: Dose-dependent effect; concentration at 6 h [13]: 2900 nM; concentration at 24 h [14]: 210 nM; concentration at 24 h [15]: 200 nM; fraction unbound [16]: 0.01; concentration at 6 h [17]: 1200 nM; concentration at 6 h [18]: 19000 nM; clearance [19]: 4.67 mL/min/kg
16 | 26 |  | CC(C)(O)c1ccnc(-c2cccc3cc([C@H](NS(=O)(=O)C4CC4)c4c(Cl)cnc(N)c4F)sc23)c1 | Vd [4]: 1.6 L/kg; Tmax [5]: 3.3 h; bioavailability [6]: 46%; half-life [7]: 3.1 h; Activity [20]: 33%; Activity [21]: 45%; concentration at 3 h [22]: 25000 nM; Drug uptake [10]: Dose-dependent effect; Cmax [11]: 2800 nM; concentration at 24 h [14]: 6300 nM; concentration at 24 h [15]: 220 nM; fraction unbound [16]: 0.01; concentration at 6 h [18]: 21000 nM; clearance [19]: 6 mL/min/kg
7.8 | 28 |  | CC(C)(O)c1ccnc(-c2cccc3cc([C@H](NS(=O)(=O)C4CC4)c4nc(N)c(F)cc4Cl)sc23)c1 | 
19 | 67 |  | CC(C)(O)c1ccnc(-c2cccc3cc([C@H](NS(=O)(=O)C4CC4)c4cc(N)ncc4Cl)sc23)c1 | 
 | > 399 |  | O=S(=O)(N[C@H](c1ccccc1)c1cc2ccccc2o1)c1ccc2c(c1)OCCCO2 | 
 | > 399 | > 12.5 | O=S(=O)(N[C@@H](c1cc2ccccc2s1)c1ccccc1Cl)c1ccc2c(c1)OCCO2 | 
 | > 399 | > 12.5 | O=S(=O)(N[C@@H](c1cc2ccccc2s1)c1ccccc1Cl)c1ccccc1 | 
 | > 399 | > 12.5 | O=S(=O)(N[C@@H](c1cc2ccccc2s1)c1ccccc1Cl)C1CC1 | 
9.5 | 18 |  | CC(C)(O)c1ccnc(-c2cccc3cc([C@H](NS(=O)(=O)C4CC4)c4c(F)cccc4Cl)sc23)c1 | 
 | > 399 | 6.3 | O=S(=O)(N[C@@H](c1cc2ccccc2o1)c1ccccc1Cl)c1ccc2c(c1)OCCCO2 | 
 | > 399 | 4.1 | O=S(=O)(N[C@@H](c1cc2ccccc2s1)c1ccccc1Cl)c1ccc2c(c1)OCC(F)CO2 (mixture of isomers) | 
